This is an account of results in US7531318B2, “Screening of agents for activity against ischemic myocardial insults” (priority 2004, dated 2009).

Test [1] concerns rat neonatal cardiomyocytes. Nature of the test: Primary neonatal cardiomyocyte culture on laminin-coated glass: migration, survival, beating. It is filed as cell-based. An excerpt:
To test the response of postnatal cardiomyocytes, the inventors cultured primary rat neonatal cardiomyocytes on laminin-coated glass and treated the cells with phosphate-buffered saline (PBS) or thymosin β4.
Primary culture of neonatal cardiomyocytes typically survives for approximately 1 to 2 weeks, with some cells beating for up to 2 weeks when grown on laminin-coated slides in our laboratory. […] In addition, the rate of beating was consistently faster in thymosin-β4-treated neonatal cardiomyocytes (95 versus 50 beats per minute, P<0.02), indicating either a change in cell-cell communication or cell metabolism (FIG. 2M; see also Supplementary FIGS. 1A-I and 2A-M).

Test [2] relates to ILK, Akt (serine 473) in C2C12 myoblasts and embryonic heart explants. Nature of the test: ILK localization/expression and Akt phosphorylation by immunocytochemistry and western blot. It is filed as cell-based. The protocol:
(§1) Immunocytochemistry on collagen gel explants. Paraformaldehyde-fixed explants were permeabilized for 10 min at room temperature with Permeabilize solution (10 mM PIPES pH 6.8; 50 mM NaCl, 0.5% Triton X-100, 300 mM sucrose, 3 mM MgCl2) and rinsed with PBS twice for 5 min each at room temperature. After a series of blocking and rinsing steps, detection antibodies were used and explants rinsed and incubated with equilibration buffer (Anti-Fade kit) for 10 min at room temperature. Explants were scooped to a glass microscope slide, covered and examined by fluorescein microscopy. TUNEL assay was performed using ApopTag plus fluorescein in situ apoptosis detection kit (Intergen Company S7111) as recommended.
Because recruitment of ILK to the focal adhesion complex is important for its activation, the inventors assayed the effects of thymosin β4 on ILK localization and expression. […] Because thymosin β4 sequesters the pool of G-actin monomers, the inventors asked whether the effects on ILK activation were dependent on the role of thymosin β4 in regulating the balance between polymerized F-actin and monomeric G-actin.

The target of a further test is T1, PINCH (Mus musculus, UniProt Q99JW4).
T1 construct: Myc or Flag (co-immunoprecipitation part only); expressed in transfected cells; host or cells: Cos and 10T1/2 cells (co-IP); T7Select10-3 phage displaying mouse embryonic heart cDNA (phage display / ELISA)
Description: Phage display, ELISA and co-immunoprecipitation of thymosin β4 interacting proteins: PINCH. The test is classed as binding. From the text: Embryonic T7 phage display cDNA library and phage biopanning. Equal amounts of messenger RNA were isolated and purified from E9.5-E12.5 mouse embryonic hearts by using Straight A's mRNA Isolation System (Novagen). cDNA was synthesized by using T7Select10-3 OrientExpress cDNA Random Primer Cloning System (Novagen). The vector T7Select10-3 was used to display random-primed cDNA at the C terminus of 5-15 phage 10B coat protein molecules. 10^9 plaque-forming units of the T7 phage embryonic heart library (100× of the complexity) in 500 μl of PBST was applied to a column of Affi-gel bound to thymosin β4 to achieve low-stringency biopanning to identify thymosin β4 interacting partners. See Supplementary Methods for details of phage packaging, phage biopanning and ELISA confirmation.
Co-immunoprecipitation. Cos and 10T1/2 cells were transfected with thymosin β4, PINCH and/or ILK and lysates precipitated with antibodies to each as previously described (Garg et al., 2003). Western blots were performed using anti-ILK polyclonal antibody (Santa Cruz), anti-thymosin β4 polyclonal antibody (Yu et al., 1993) (gift of H. Yin) and anti-Myc or anti-Flag antibody against tagged versions of PINCH.
Thymosin β4 activates ILK and Akt. […]
A general note: An ELISA detects its analyte on a solid surface through an enzyme-linked reagent.

Test [3] deals with E11.5 cardiac outflow tract explants (myocardial cells). Description: Collagen gel migration assay, embryonic heart explant: myocardial cell migration and beating. The test is classed as cell-based, mouse. As to the method: Collagen gel migration assay. Outflow tract was dissected from E11.5 wild-type mouse embryos and placed on collagen matrices as previously described (Runyan and Markwald, 1983. After 10 h of attachment explants were incubated in 30 ng per 300 μl thymosin β4 in PBS, PBS alone or thymosin β4 and 100 nM wortmannin. Cultures were carried out for 3-9 days at 37° C. 5% CO2 and fixed in 4% paraformaldehyde in PBS for 10 min at room temperature. Cells were counted for quantification of migration and distance using at least three separate explants under each condition for endothelial migration and eight separate explants for myocardial migration.
as §1
To test the effects of secreted thymosin β4 on cardiac cell migration, the inventors used an embryonic heart explant system designed to assay cell migration and transformation on a collagen gel (Runyan and Markwald, 1983).
To determine whether activation of ILK was necessary for the observed effects of thymosin β4, the inventors used a well-described ILK inhibitor, wortmannin, which inhibits ILK's upstream kinase, phosphatidylinositol-3-OH kinase (PI(3)K) (Delcommenne et al., 1998). Using myocardial cell migration and beating frequency as assays for thymosin β4 activity, the inventors cultured embryonic heart explants as described above in the presence of thymosin β4 with or without wortmannin.

The mark [4] stands for this setting: compared to control cells, data not shown.

T1 sequence (Q99JW4 whole entry): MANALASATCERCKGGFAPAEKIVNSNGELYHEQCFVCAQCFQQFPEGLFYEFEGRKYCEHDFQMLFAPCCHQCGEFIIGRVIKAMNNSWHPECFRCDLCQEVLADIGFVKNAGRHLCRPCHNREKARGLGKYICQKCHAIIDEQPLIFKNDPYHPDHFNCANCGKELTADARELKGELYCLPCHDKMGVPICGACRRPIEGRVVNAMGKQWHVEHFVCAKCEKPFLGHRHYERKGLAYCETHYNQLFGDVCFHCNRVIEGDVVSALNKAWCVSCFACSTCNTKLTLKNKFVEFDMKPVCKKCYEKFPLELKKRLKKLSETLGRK

For thymosin β4, in test [1] (controls beat for up to 2 weeks), the “time for which rhythmically contracting myocytes were visible” value was “up to 28 days”. In test [1] (controls typically survive approximately 1 to 2 weeks), the “survival of neonatal cardiomyocytes in primary culture” value is given as “survived significantly longer”. In test [1] (laminin-coated glass, vs PBS control, P<0.05), the “migrational distance of neonatal cardiomyocytes” value was “significantly increased”. For the same substance, the rate of beating in test [1] (versus 50 in control, P<0.02) stood at 95 beats per minute. Further, in test [2] (C2C12 cells), the “ILK protein levels (western)” value was “modest increase” and the “total Akt protein” value is “unchanged”. Moreover, in test [2] (C2C12 cells, phospho-specific antibody), the “phosphorylation of Akt at serine 473” value is reported as “increased phosphorylation”. Besides, the “ILK detection around the cell edges by immunocytochemistry” value in test [2] (embryonic heart explants or C2C12 myoblasts, synthetic protein 10 ng per 100 μl or expressing plasmid) is “markedly enhanced”. Further, the “interaction with PINCH (phage display, ELISA)” value with PINCH (in the absence of actin, N-terminus fused to affi-gel beads) is listed as “interacted”. The “co-precipitation with PINCH” value with PINCH (transfected cultured cells) is reported as “co-precipitated”. Moreover, the “myocardial cell migration away from the explant” value in test [3] (E11.5 outflow tract explants on collagen, 30 ng per 300 μl thymosin β4 vs PBS, P<0.0001) is “large number of spontaneously beating, cardiac muscle actin-positive cells that migrated away from the explant”. Moreover, in test [3] (setting [4]), the “cell death of migrating cells (TUNEL assay)” value is on record as “No significant difference” and the “proliferative rate of migrating cells (phospho-histone H3 immunostaining)” value is recorded as “No significant difference”.
